Assay results from patent US20160100573A1, “QUATERNARY ORGANOSILICON SURFACTANTS, METHODS OF MAKING SAME AND APPLICATIONS CONTAINING THE SAME” (Momentive Performance Materials Inc., priority 2014, published 2016).

Tests used:
[1] = Spreading of surfactant solutions on polystyrene surface (spread diameter after 30 seconds); type: physicochemical; parameters: unit not given here
Procedure: Spreading was determined using between 0.1% and 0.4% (actives) surfactant. Solutions were prepared in Milli-Pore water (deionized) where a 10 μl, drop was placed on a polystyrene surface (Petri-dish) and the spread diameter determined after 30 seconds.

[2] = Aqueous surface tension by Wilhelmy Plate method (Kruss Tensiometer); type: physicochemical; conditions: ~22° C.; for CMC: 0.005M NaCl
Procedure: The aqueous surface tension of the various surfactants was determined by the Wilhelmy Plate method using a sand-blasted platinum blade as the sensor. Measurements were made using a Kruss surface Tensiometer. Surfactant solutions were prepared between 0.00001% and 1 wt % in 0.005M NaCl at ambient temperatures (˜22° C.).

[3] = Impact of cosurfactant on spreading of QC-1A on polystyrene surface; type: physicochemical; conditions: 0.2 wt % QC-1A, 0 wt % cosurfactant
Procedure: Spreading was determined using 0.2% (actives) total surfactant solutions, where a […] was placed on a polystyrene surface and the spread diameter determined after 30 seconds. The ratio of QC-1A to Cosurfactant was varied to determine the potential for synergistic or antagonistic effects from interaction between the two surfactants. The spread results (Actual) for each set were compared to a predicted value (weighted average) based on a linear relationship between QC-1A and the Cosurfactant.

[4] = system: Barnyardgrass (Echinochloa crus-galli); test: Effect of adjuvant on uptake of 14C-glyphosate isopropylamine salt into Barnyardgrass; type: in vivo
Procedure: In one other embodiment herein the quaternary organosilicon surfactant composition of the present invention is such that the foliar uptake of various agricultural chemicals is faster for applications containing the quaternary organosilicon having the general formula (I) than that for equivalent applications containing a tallow amine ethoxylate.
Uptake of ^14C-glyphosate (herbicide) into Barnyardgrass (Echinochloa crus-galli) was determined at 2 and 24 hours after treatment (HAT) according to the method described by Gaskin et al. (Gaskin, R. E.; Stevens, P. J. G. 1992. Pestic. Sci. 38: 185-192.), to establish the impact of surfactant on the speed of uptake. Uptake was determined on adaxial surface of youngest fully expanded leaf; plant at 4 leaf stage, ca 10 cm tall.

[5] = Dispersibility / cloud point of surfactant in glyphosate-isopropyl amine 480 g/L formulation; type: physicochemical; conditions: for Cloud Point (50 g/L): surfactant at 5% in glyphosate 480 g/L formulation
Procedure: Aqueous glyphosate-isopropyl amine (480 g/L) formulations containing 5% of either Comparative-B or the composition of the present invention were prepared and evaluated for dispersion properties. The formulations were visually observed for clarity at 20-22° C., and if clear to hazy, the cloud point was also measured.
Cloud point was determined by placing 15 mL of formulation in a 20 dram vial containing a digital thermometer, and slowly heating the mixture on a magnetic stirrer/hot plate. The temperature at which the solution became opaque was recorded as the cloud point.

[6] = 0.1 wt % surfactant (actives) in deionized water
[7] = 0.2 wt % surfactant (actives) in deionized water
[8] = 1.00E+00 weight % surfactant in 0.005M NaCl
[9] = 1.00E-01 weight % surfactant in 0.005M NaCl
[10] = 1.00E-02 weight % surfactant in 0.005M NaCl
[11] = 1.00E-03 weight % surfactant in 0.005M NaCl
[12] = 1.00E-04 weight % surfactant in 0.005M NaCl
[13] = 1.00E-05 weight % surfactant in 0.005M NaCl
[14] = 3.00E-03 weight % surfactant in 0.005M NaCl
[15] = 0.4 wt % surfactant (actives) in deionized water

COCCOCCOCCOCCOCCOCCOCCOCCOCCC[Si](C)(C)CC[Si](C)(C)C [Comparative-A, (CH3)3—Si—CH2CH2Si(CH3)2CH2CH2CH2O(CH2CH2O)8CH3]
Spread diameter [1, 6]: 43
Spread diameter [1, 7]: 54
CMC [2]: 0.005 wt %
Surface Tension [2, 8]: 23.7 mN/m
Surface Tension [2, 9]: 24.4 mN/m
Surface Tension [2, 10]: 25.4 mN/m
Surface Tension [2, 11]: 34.8 mN/m
Surface Tension [2, 12]: 48.7 mN/m
Surface Tension [2, 13]: 62.4 mN/m
Surface Tension [2, 14]: 30.1 mN/m

C[N+](C)(CCCO)CC(O)COCCC[Si](C)(C)CC[Si](C)(C)C (stereo not drawn) [QC-1A]
Spread Diameter (Actual) [3]: 48 mm
Spread Diameter (Predicted) ([3]; weighted average): 48 mm

C[N+](C)(CCCO)CC(O)COCCC[Si](C)(C)CC[Si](C)(C)C (stereo not drawn) [QC-1]
Spread diameter [1, 6]: 13
Spread diameter [1, 7]: 33
Spread diameter [1, 15]: 47
Glyphosate uptake relative to TAE-2 ([4]; 2 HAT, even at a 4x lower use rate): significantly enhances glyphosate uptake
Uptake % of 14C-glyphosate ([4]; adjuvant 0.05 % w/v, 2 HAT): 40.1 d %
Uptake % of 14C-glyphosate ([4]; adjuvant 0.05 % w/v, 24 HAT): 57.6 be %
Uptake % of 14C-glyphosate ([4]; adjuvant 0.1 % w/v, 2 HAT): 34.8 e %
Uptake % of 14C-glyphosate ([4]; adjuvant 0.1 % w/v, 24 HAT): 56.2 c %
Uptake % of 14C-glyphosate ([4]; adjuvant 0.2 % w/v, 2 HAT): 36.2 de %
Uptake % of 14C-glyphosate ([4]; adjuvant 0.2 % w/v, 24 HAT): 61.6 b %
Cloud Point (50 g/L) [5]: >95 °C

C[N+](C)(CC(O)CO)CC(O)COCCC[Si](C)(C)CC[Si](C)(C)C (stereo not drawn) [QC-2]
Spread diameter [1, 6]: 10
Spread diameter [1, 7]: 23
Spread diameter [1, 15]: 40
Cloud Point (50 g/L) [5]: >95 °C

CCCC[N+](C)(C)CC(O)COCCC[Si](C)(C)CC[Si](C)(C)C (stereo not drawn) [QC-3]
Spread diameter [1, 6]: 14
Spread diameter [1, 7]: 23
Spread diameter [1, 15]: 36
Cloud Point (50 g/L) [5]: Hazy at 20 °C

C[N+](C)(CCCO)CC(O)COCCC[Si](C)(O[Si](C)(C)C)O[Si](C)(C)C (stereo not drawn) [TSQ-1]
Spread diameter [1, 6]: 15
Spread diameter [1, 7]: 30
CMC [2]: 0.009 wt %
Surface Tension [2, 8]: 19.9 mN/m
Surface Tension [2, 9]: 20.2 mN/m
Surface Tension [2, 10]: 22.3 mN/m
Surface Tension [2, 11]: 38.3 mN/m
Surface Tension [2, 12]: 55.6 mN/m
Surface Tension [2, 13]: 66.7 mN/m
Surface Tension [2, 14]: 28.7 mN/m

(CH3)3—Si—O—Si(CH3)(Z)—OS i(CH3)3 Where Z=—CH2CH2CH2O(CH2CH2O)8CH3 [Comparative-B]
CMC [2]: 0.01 wt %
Surface Tension [2, 8]: 20.6 mN/m
Surface Tension [2, 9]: 20.7 mN/m
Surface Tension [2, 10]: 21.5 mN/m
Surface Tension [2, 11]: 34.2 mN/m
Surface Tension [2, 12]: 45.1 mN/m
Surface Tension [2, 13]: 52.9 mN/m
Surface Tension [2, 14]: 27.0 mN/m
Dispersibility in the glyphosate formulation (visual) ([5]; 5% surfactant in glyphosate-isopropyl amine 480 g/L, 20-22° C.): insoluble in the glyphosate formulation
Cloud Point (50 g/L) [5]: Cloudy at 20° C.^a.
